Read-outs that look alike come from different tables or passages of the source. Where a SMILES comes first, the peptide text is derived from it. Bridges are numbered along the chain shown (N, C = ends).
Columns and labels:
in vivo [1] = settings: both, Sprague-Dawley, rat, iv
in vivo [2] = settings: both, cynomolgus monkey; for AUC(0-inf) / AUC / clearance / Cmax / MRT inf / Vd: iv, cynomolgus; for AUC(0-inf): AUC0-∞; for AUC: AUCτ; for clearance: CL; for MRT inf: MRTinf; for Vd: Vss
[3] = Single i.v. bolus PK in a vervet monkey (pilot safety study); type: in vivo, vervet/African green monkey (Chlorocebus aethiops sabaeus); settings: single 3 mg/kg i.v. bolus
Experimental: Vervet monkey studies: As a pilot safety study, a single dose of Peptide 1 (SEQ ID NO. 1) at 3 mg/kg was administered to an adult male vervet/African green monkey (Chlorocebus aethiops sabaeus) via i.v. bolus. Serial blood samples were collected at 0.5, 1, 4, 8, 24, 48, 72, 96, 120, and 192 h post-administration.
Bioanalytical analysis: Clarified plasma samples from mice were directly diluted into 5% formic acid/5% acetonitrile. Quantitative analysis of Peptide 1 (SEQ ID NO. 1) was performed by LC-MS/MS with reverse-phase liquid chromatography (XBridge™ BEH phenyl 3.5 μm 3×100 mm column, Waters #186003328) on an Acquity™ H-Class UPLC (Waters) coupled to a Xevo™ TQ-S tandem electrospray mass spectrometry running MassLynx™ V4.1 (Waters). Quantitative mass spectroscopy was performed by multiple-reaction monitoring transition 417.32>517.21, with the area under the curve determined by TargetLynx™ (Waters). A synthetic theta defensin-like peptide was used as an internal standard (IS). The lower limit of quantification (LLOQ) of the assay was 1 ng/mL. Intra- and inter-assay precision (percent coefficient of variation [CV]) was ≤3%, and intra and interassay accuracy (% relative error) was ≤5%. Plasma Peptide 1 (SEQ ID NO. 1) concentration analyses for rats and cynomolgus monkey studies were performed at MicroConstants (San Diego, CA) by HPLC using a Mac-Mod™ Analytical ACE C4 column. The mobile phase was nebulized using heated nitrogen in Z-Spray source/interface set to electrospray positive ionization mode, and the compound was detected using MS/MS (LLOQ=10.0 ng/mL). Details of the method are summarized in the MicroConstants method No. MN20038. Clarified plasma samples from a serially sampled vervet were quantified by ultra-performance liquid chromatography Waters Acquity H-Class UPLC. […] Peptide 1 (SEQ ID NO. 1) peak and mass confirmation was performed on post PDA eluent using a Micromass Quattro Ultima™ mass spectrometer with MassLynx™ 4.1 (Waters). The lower limit of quantitation (LLOQ) ranged from 10-30 ng/mL (determined by sample background) to an upper limit of 50 ug/mL. RTD-2 (10 ug/mL) was used as an internal standard. Intra- and interassay precision (% coefficient of variation [CV]) was ≤3%, and intra and interassay accuracy (% relative error) was ≤5%.
Pharmacokinetic analysis: Non-compartmental analysis (NCA) was performed using Phoenix WinNonlin™ (version 8.3.1, Certara USA, Inc.; Princeton NJ) to determine the PK parameters in mice, rats, cynomolgus monkeys, and the vervet. Nominal sampling times were used in the analysis, and data below the lower limit of quantification of the assay were excluded from the analysis. The maximum plasma concentration (Cmax) was determined from visual inspection of the data. In addition, the following parameters were calculated: terminal elimination rate constant (λz), area under the curve extrapolated to infinity (AUC0-∞), area under the curve to dosing interval (AUCτ), mean residence time (MRT), clearance (CL), and volume of distribution at steady state (Vss). AUC was calculated using the linear up, log down method, and the λz was calculated using up to the last four data points of the log-linear terminal phase of the concentration-time profile. Due to sparsely sampled data in mice and rats, the sparse sampling calculation methodology in Phoenix WinNonlin™ was used, which generated a single estimate without standard error for all parameters, except for Cmax. For rats and cynomolgus monkeys, all parameters were calculated using sampling times relative to the beginning of the i.v. infusion.

[4] = cynomolgus
[5] = 0.3 mg/kg, 0.3 mg/kg i.v., Day 1, mean
[6] = 1 mg/kg, 1 mg/kg i.v., Day 1, mean
[7] = 3 mg/kg, 3 mg/kg i.v., Day 1, mean
[8] = 5 mg/kg, 5 mg/kg i.v., Day 1, mean
[9] = 5 mg/kg/day, 5 mg/kg/day i.v., Day 10, mean
[10] = 10 mg/kg, 10 mg/kg i.v., Day 1, mean
[11] = 10 mg/kg/day, 10 mg/kg/day i.v., Day 10, mean
[12] = 15 mg/kg, 15 mg/kg i.v., Day 1, mean
[13] = 15 mg/kg/day, 15 mg/kg/day i.v., Day 4, mean
[14] = 15 mg/kg/day, 15 mg/kg/day i.v., Day 7, mean
[15] = 15 mg/kg/day, 15 mg/kg/day i.v., Day 10, mean

SMILES: CC[C@H](C)[C@@H]1NC(=O)[C@@H]2CSSC[C@H](NC(=O)[C@H](CCCNC(=N)N)NC(=O)[C@@H]3CSSC[C@H](NC1=O)C(=O)N[C@@H]([C@@H](C)O)C(=O)N[C@@H](CCCNC(=N)N)C(=O)NCC(=O)N[C@@H](Cc1ccccc1)C(=O)N3)C(=O)N[C@@H](CC(C)C)C(=O)N[C@H]1CSSC[C@H](NC(=O)[C@H](C(C)C)NC(=O)CNC(=O)[C@H](CCCNC(=N)N)NC(=O)[C@H](CCCNC(=N)N)NC1=O)C(=O)N[C@@H](CCCNC(=N)N)C(=O)N2 [Peptide 1] (cyclo(GFCRCLCRRGVCRCICTR); disulfide 3-16, 5-14, 7-12)
- NOAEL at 7 days (in vivo [1]): 10 mg/kg/day
- half-life (in vivo [2]): 9.53 h
- half-life (in vivo [2]; 15 mg/kg): 47.2 h
- AUC(0-inf) (in vivo [2]; [5]): 617 ng·h/mL
- AUC (in vivo [2]; [5]): 591 ng·h/mL
- clearance (in vivo [2]; [5]): 8.3 mL/min/kg
- Cmax (in vivo [2]; [5]): 582 ng/mL
- MRT inf (in vivo [2]; [5]): 1.24 h
- Vd (in vivo [2]; [5]): 0.626 L/kg
- AUC(0-inf) (in vivo [2]; [6]): 3880 ng·h/mL
- AUC (in vivo [2]; [6]): 3820 ng·h/mL
- clearance (in vivo [2]; [6]): 4.43 mL/min/kg
- Cmax (in vivo [2]; [6]): 2560 ng/mL
- MRT inf (in vivo [2]; [6]): 1.82 h
- Vd (in vivo [2]; [6]): 0.486 L/kg
- AUC(0-inf) (in vivo [2]; [7]): 10700 ng·h/mL
- AUC (in vivo [2]; [7]): 10300 ng·h/mL
- clearance (in vivo [2]; [7]): 4.78 mL/min/kg
- Cmax (in vivo [2]; [7]): 4750 ng/mL
- MRT inf (in vivo [2]; [7]): 4.3 h
- Vd (in vivo [2]; [7]): 1.22 L/kg
- AUC(0-inf) (in vivo [2]; [8]): 27200 ng·h/mL
- AUC (in vivo [2]; [8]): 27200 ng·h/mL
- clearance (in vivo [2]; [8]): 3.13 mL/min/kg
- Cmax (in vivo [2]; [8]): 10700 ng/mL
- MRT inf (in vivo [2]; [8]): 2.94 h
- Vd (in vivo [2]; [8]): 0.55 L/kg
- AUC(0-inf) (in vivo [2]; [9]): 40000 ng·h/mL
- AUC (in vivo [2]; [9]): 38900 ng·h/mL
- clearance (in vivo [2]; [9]): 2.27 mL/min/kg
- Cmax (in vivo [2]; [9]): 11700 ng/mL
- MRT inf (in vivo [2]; [9]): 4.84 h
- Vd (in vivo [2]; [9]): 0.645 L/kg
- AUC(0-inf) (in vivo [2]; [10]): 76800 ng·h/mL
- AUC (in vivo [2]; [10]): 76100 ng·h/mL
- clearance (in vivo [2]; [10]): 2.38 mL/min/kg
- Cmax (in vivo [2]; [10]): 26700 ng/mL
- MRT inf (in vivo [2]; [10]): 4.4 h
- Vd (in vivo [2]; [10]): 0.629 L/kg
- AUC(0-inf) (in vivo [2]; [11]): 125000 ng·h/mL
- AUC (in vivo [2]; [11]): 118000 ng·h/mL
- clearance (in vivo [2]; [11]): 1.48 mL/min/kg
- Cmax (in vivo [2]; [11]): 27300 ng/mL
- MRT inf (in vivo [2]; [11]): 7.2 h
- Vd (in vivo [2]; [11]): 0.624 L/kg
- AUC(0-inf) (in vivo [2]; [12]): 142000 ng·h/mL
- AUC (in vivo [2]; [12]): 138000 ng·h/mL
- clearance (in vivo [2]; [12]): 1.9 mL/min/kg
- Cmax (in vivo [2]; [12]): 46500 ng/mL
- MRT inf (in vivo [2]; [12]): 5.48 h
- Vd (in vivo [2]; [12]): 0.629 L/kg
- AUC(0-inf) (in vivo [2]; [13]): 167000 ng·h/mL
- AUC(0-inf) (in vivo [2]; [14]): 188000 ng·h/mL
- AUC(0-inf) (in vivo [2]; [15]): 213000 ng·h/mL
- AUC (in vivo [2]; [13]): 140000 ng·h/mL
- AUC (in vivo [2]; [14]): 154000 ng·h/mL
- AUC (in vivo [2]; [15]): 173000 ng·h/mL
- clearance (in vivo [2]; [13]): 1.78 mL/min/kg
- clearance (in vivo [2]; [14]): 1.63 mL/min/kg
- clearance (in vivo [2]; [15]): 1.72 mL/min/kg
- Cmax (in vivo [2]; [13]): 31100 ng/mL
- Cmax (in vivo [2]; [14]): 32800 ng/mL
- Cmax (in vivo [2]; [15]): 32200 ng/mL
- MRT inf (in vivo [2]; [13]): 11.8 h
- MRT inf (in vivo [2]; [14]): 12.3 h
- MRT inf (in vivo [2]; [15]): 12 h
- Vd (in vivo [2]; [13]): 1.26 L/kg
- Vd (in vivo [2]; [14]): 1.19 L/kg
- Vd (in vivo [2]; [15]): 1.14 L/kg
- AUC ([3]; male, monkey, plasma, iv): 21900 ng·h/mL
- AUC(0-inf) ([3]; male, monkey, plasma, iv): 22100 ng·h/mL
- Cmax ([3]; male, monkey, plasma, iv): 5190 ng/mL
- MRT ([3]; male, monkey, plasma, iv): 4.71 h
- clearance ([3]; male, monkey, plasma, iv): 2.27 mL/min/kg
- Vd ([3]; male, monkey, plasma, iv, read-out: Vss): 0.639 L/kg
- λz [3]: 0.204 h⁻¹
- λz ([4]; 0.3 mg/kg i.v., Day 1, mean): 0.523 h⁻¹
- λz ([4]; 1 mg/kg i.v., Day 1, mean): 0.251 h⁻¹
- λz ([4]; 3 mg/kg i.v., Day 1, mean): 0.078 h⁻¹
- accumulation, mean AUCτ Day 10 vs mean AUC0-∞ Day 1 ([4]; 5 mg/kg): approximately 1.4 fold
- λz ([4]; 5 mg/kg i.v., Day 1, mean): 0.323 h⁻¹
- λz ([4]; 5 mg/kg/day i.v., Day 10, mean): 0.157 h⁻¹
- accumulation, mean AUCτ Day 10 vs mean AUC0-∞ Day 1 ([4]; 10 mg/kg): ~1.5 fold
- λz ([4]; 10 mg/kg i.v., Day 1, mean): 0.192 h⁻¹
- λz ([4]; 10 mg/kg/day i.v., Day 10, mean): 0.120 h⁻¹
- λz ([4]; 15 mg/kg i.v., Day 1, mean): 0.149 h⁻¹
- λz ([4]; 15 mg/kg/day i.v., Day 4, mean): 0.072 h⁻¹
- λz ([4]; 15 mg/kg/day i.v., Day 7, mean): 0.071 h⁻¹
- λz ([4]; 15 mg/kg/day i.v., Day 10, mean): 0.078 h⁻¹
- time plasma concentrations detectable post end of infusion ([4]; single dose of 0.3 or 1 mg/kg): up to 12 h
